Consider five molecules from patent US6992095B2, “Stilbene compounds comprising an adamantyl group, compositions and methods thereof” (Galderma Research & Development, S.N.C., priority 1996, dated 2006).

Where two headings read alike, the source gives them in different places.

As a reminder, the IC50 is the point on the concentration scale where inhibition reaches its midpoint.

For this test, the system named is mouse embryonic teratocarcinoma F9 cells. In words: mouse embryonic teratocarcinoma F9 cell differentiation test (antagonist activity). To be noted: inhibition by 50% of agonist effect on secretion of plasminogen activator, CD 2043 at 10 nM, incubation for three days, read-out: Antagonist against CD 2043 (10 nM) F9 differentiation test IC50. The test is classed as cell-based. From the text:
The compounds according to the invention show activity in the test of differentiation of mouse embryonic teratocarcinoma cells (F9) (Cancer Research, 43, 5268 (1983)) and/or in the test of inhibition of ornithine decarboxylase after induction with TPA in mice (Cancer Research, 38, 793–801 (1978)). These tests show the activities of these compounds in the fields of cell differentiation and cell proliferation, respectively. In the test of cell (F9) differentiation, […] to retinoic acid receptors. […] Some of these compounds are thus also active in a test which is used to identify molecules which are RAR antagonists, as described in French patent application No. 95/07302 filed on 19 Jun. 1995 by the same Assignee as the present invention, which is incorporated by reference in its entirety herein. […] Thus, the response to a topical application, to the ear of a mammal, of an RAR-agonist molecule, which corresponds to an increase in the thickness of this ear, may be inhibited by the systemic or topical administration of an RAR-antagonist molecule. In addition, some of these compounds may provide synergism to the biological activity of products binding to the nuclear receptors.
The antagonist activity of the compounds of formula (I) was evaluated in the mouse embryonic teratocarcinoma F9 cell differentiation test, (Cancer Research, 43, 5268 (1983)).
The F9 cells were inoculated in 12-well clusters, the compounds were tested at from 10^−9 to 10^−5 M in the presence of all-trans-retinoic acid or of a synthetic agonist retinoid, 4-(5,6,7,8-tetrahydro-5,5,8,8-tetramethyl-2-naphthylaminomethyl)benzoic acid (CD 2043), at 10^−8 M. After incubation for three days, the morphological observations were carried out and the concentration of the test compound which inhibits the agonist effect on the secretion of the plasminogen activator by 50% (IC50) was determined.

Take `COCCOCOc1ccc(/C=C/c2ccc(C(=O)O)cc2)cc1C12CC3CC(CC(C3)C1)C2` [Example 2, 4-[(E)-2-(3-(1-Adamantyl)-4-methoxyethoxymethoxy-phenyl)ethenyl]benzoic acid]: the IC50 (Mus musculus, F9, 72 h) was 310 nM.
Consider `COCCOCOc1ccc(/C(C)=C\c2ccc(C(=O)O)cc2)cc1C12CC3CC(CC(C3)C1)C2` [Example 5, 4-[(Z)-2-(3-(1-Adamantyl)-4-methoxyethoxymethoxy-phenyl)-1-prorenyl]benzoic acid], for which the IC50 amounted to 630 nM.
As to `COCCOCOc1ccc(/C(C)=C/c2ccc(C(=O)O)nc2)cc1C12CC3CC(CC(C3)C1)C2` [Example 7, 5-{2-[3-Adamant-1-yl-4-(2-methoxyethoxymethoxy)-phenyl]proxpen-(E)-yl}pyridine-2-carboxylic acid], the IC50 is 600 nM.
Take `COCCOCOc1ccc(/C(C)=C/c2ccc(C(=O)O)cn2)cc1C12CC3CC(CC(C3)C1)C2` [Example 10, 6-{2-[3-Adamant-1-yl-4-(2-methoxyethoxymethoxy)-phenyl]proven-(E)-yl}nicotinic acid]: the IC50 is 35 nM.
In the case of `COCCOCOc1ccc(/C(C)=C/c2ccc(C(=O)O)cc2)cc1C12CC3CC(CC(C3)C1)C2` [Example 4, 4-[(E)-2-(3-(1-Adamantyl)-4-methoxyethoxymethoxy-phenyl)-1-propenyl]benzoic acid], the IC50 (Mus musculus, F9, 72 h) worked out at 9 nM.
